{"source": "patent US8940497B2", "about": "“Enzyme regulating ether lipid signaling pathways” (The Scripps Research Institute, priority 2006, dated 2015)", "key": {"SKOV-3 cells [1]": {"system": "SKOV-3 cells", "assay": "Untargeted LC-MS comparative metabolomics of inhibitor-treated cells", "assay_type": "cell-based, human", "details": "AS115 10 μM or DMSO, 4 h", "description": "(§1) The following LC-MS conditions were used for analysis of cancer cell metabolomes. Cell pellets were harvested by scraping, isolated by centrifugation at 1,400×g, and dounce-homogenized in 4 mL of a 2:1:1 mixture of chloroform:methanol:Tris buffer (50 mM Tris*HCl, pH 8.0). Samples that were analyzed by targeted LC-MS were homogenized in the presence of the following synthetic standards: C15:0 MAG (50 pmol), C17:0 LPA (50 pmol), and 13C-C16:0 MAGE (25 pmol). Organic and aqueous layers were separated by centrifugation at 1,260×g for 5 min. The organic layer was then removed, dried under a stream of N2, and re-solubilized in 100 μL of chloroform, of which 30 μL was analyzed by LC-MS. Extraction of LPA was performed by acidifying the remaining aqueous layer to a final concentration of 5% formic acid, followed by the addition of 2 mL of chloroform. The mixture was vortexed, the organic layer removed, concentrated to dryness, and dissolved in 100 μL of chloroform, of which 30 μL was analyzed by LC-MS.\n(§2) LC-MS analysis was performed using an Agilent 1100 LC-MSD SL instrument. […] Mobile phase A was composed of a 95:5 ratio of water:methanol and mobile phase B consisted of 2-propanol, methanol, and water in a 60:35:5 ratio. Solvent modifiers such as 0.1% formic acid and 0.1% ammonium hydroxide were used to assist ion formation as well as improve the LC resolution in both positive and negative ionization modes respectively. The flow rate for each run started at 0.1 mL/min for 5 min, to alleviate backpressure associated with injecting chloroform. The gradient started at 0% B and increased linearly to 100% B over the course of 40 min with a flow rate of 0.4 mL/min, followed by an isocratic gradient of 100% B for 7 min before equilibrating for 8 min at 0% B with a flow rate of 0.5 mL/min.\n(§3) MS analysis was performed with an electrospray ionization (ESI) source. The capillary voltage was set to 3.0 kV and the fragmentor voltage to 100V. The drying gas temperature was 350° C., the drying gas flow rate was 10 L/min, and the nebulizer pressure was 35 psi. Untargeted data was collected using a mass range of 200-1000 Da and exported as common data format (.CDF) files for computational analysis. Differentially expressed metabolites between sample pairs were identified using the XCMS analyte profiling software (http://metlin/download) that aligns mass peaks from two LC-MS traces and quantifies the relative intensities of global metabolites (5). Significant inhibitor-sensitive peak changes were confirmed by manual quantification using the area under the peak normalized to total ion current. Targeted LC-MS measurements were made using selected ion monitoring (SIM). Peaks were quantified by measuring the area under the peak and normalized to an internal standard (C15:0 MAG) or endogenous lipid (palmitic acid). Absolute MAGE levels were estimated by comparison to a 13C-MAGE standard.\n(§4) Human ovarian cancer cell lines were obtained form the National Cancer Institute's Developmental Therapeutics Program. The melanoma lines C8161 and MUM-2B were obtained form Mary Hendrix. Cells were maintained in RPMI medium 1640 with 10% (v/v) fetal calf serum at 37° C. in a humidified atmosphere of 5% CO2/95% air. At approximately 80% confluency, cells were trypsinized, counted with the aid of a hemocytometer, and 2.5×10^6 cells were plated in 6 cm dishes. 20 h after plating cells were washed twice with PBS and supplemented with serum free RPMI containing 0.5% BSA (Sigma)(BSA-RPMI) with AS115 (0.01-10 μM) or vehicle (DMSO) at 0.1%. After incubation for 4 h the cells were harvested and analyzed by ABPP or LC-MS.\nThese experiments were performed using the method of untargeted liquid chromatography-mass spectrometry (LC-MS) for comparative metabolomics. Cells were treated with AS115 (10 μM) or DMSO for 4 h and analyzed by untargeted LC-MS methods. […] Relative mass signals are shown in Table 1, represented as the average values and standard error for three independent experiments."}, "[2]": {"system": "other serine hydrolase activities", "assay": "In situ competitive ABPP with FP-rhodamine, other serine hydrolases", "assay_type": "cell-based, human", "details": "SKOV-3 cells treated in culture with AS115 (0-10 μM), 4 h", "description": "as §4\n[…]. Cells were washed twice and scraped in ice-cold PBS. […] Proteomes protein concentrations were determined by a protein assay kit (Bio-Rad), adjusted to a final concentration of 1 mg/mL in Tris buffer, and treated with 2 μM FP-rhodamine for 30 min at room temperature (50 μL total reaction volume). […] Reactions were quenched with one volume of standard 2×SDS/PAGE loading buffer (reducing), separated by SDS/PAGE (10% acrylamide) and visualized in-gel with a Hitachi FMBio Ile flatbed fluorescence scanner (MiraiBio). Integrated band intensities were calculated for the labeled proteins and averaged from 3 independent cell samples to determine the level of each enzyme activity."}, "[3]": {"system": "background 2-thioacetyl MAGE hydrolyzing activity in membrane proteomes", "assay": "Background 2-thioacetyl MAGE hydrolyzing activity in membrane proteomes", "assay_type": "biochemical", "details": "FIG. 14", "description": "KIAA1363-transfected cell lines were used for substrate-based enzyme activity assays. Membrane proteomes were adjusted to 0.5 mg/ml in 50 mM tris pH 7.4 buffer containing 5 mM CHAPS detergent. Immediately prior to the assay, 5,5′-dithiobis-(2-nitrobenzoic acid) (DTNB, Sigma) was added at 0.5 mM to the membrane proteome to prepare the Assay Buffer. For analysis of inhibitors, 1 ul of a 50× inhibitor solution in DMSO was added to 48 ul of Assay Buffer and preincubated for 20 min at RT. The substrate 2-thioacetyl MAGE (Cayman Chemical) was prepared by evaporating off the original solvent under nitrogen and redissolving the residue in DMSO. 1 ul of 5 mM 2-thioacetyl MAGE stock is added to each assay well to begin the assay. Absorbance is determined at A405 nm.\nThe background 2-thioacetyl MAGE hydrolyzing activity in membrane proteomes that is not inhibited by AS-115 is inhibited by the broad serine protease inhibitor PMSF (FIG. 14). The IC50 of AS-115 was measured using the 2-thioacetyl MAGE substrate-based assay with Flag-KIAA1363/293T cell membrane proteome (FIG. 15)."}, "MUM-2B melanoma cells": {"system": "MUM-2B melanoma cells", "assay": "LC-MS MAGE lipid levels in inhibitor-treated melanoma cells", "assay_type": "cell-based, human", "details": "compared to DMSO controls", "description": "as §1, §2\n(§5) MS analysis was performed with an electrospray ionization (ESI) source. […] Differentially expressed metabolites between sample pairs were identified using the XCMS analyte profiling software (http://metlin/download) that aligns mass peaks from two LC-MS traces and quantifies the relative intensities of global metabolites (5). Significant inhibitor-sensitive peak changes were confirmed by manual quantification using the area under the peak normalized to total ion current. […] Peaks were quantified by measuring the area under the peak and normalized to an internal standard (C15:0 MAG) or endogenous lipid (palmitic acid). […]\n(§6) Human ovarian cancer cell lines were obtained form the National Cancer Institute's Developmental Therapeutics Program. […] At approximately 80% confluency, cells were trypsinized, counted with the aid of a hemocytometer, and 2.5×10^6 cells were plated in 6 cm dishes. […] After incubation for 4 h the cells were harvested and analyzed by ABPP or LC-MS. […]"}, "C8161 melanoma cells": {"system": "C8161 melanoma cells", "assay": "LC-MS MAGE lipid levels in inhibitor-treated melanoma cells", "assay_type": "cell-based, human", "details": "compared to DMSO controls", "description": "as §1, §2, §5, §6"}, "SKOV-3 cells [4]": {"system": "SKOV-3 cells", "assay": "Targeted LC-MS analysis of lipid levels in inhibitor-treated cells", "assay_type": "cell-based, human", "description": "as §1, §2, §3, §4\nBy extension, the m/z 345 and 347 metabolites were interpreted to represent the C18:1 and C18:0 MAGEs, respectively. […] MAGE levels were measured by targeted LC-MS analysis of SKOV-3 cells treated with AS115 (5 μM) or DMSO for 4 h using a 13C-C16:0 MAGE internal standard. Values are represented as pmol/10^6 cells. […]"}, "SKOV-3 cells [5]": {"system": "SKOV-3 cells", "assay": "Metabolic labeling of SKOV-3 cells with 13C-2-acetyl MAGE", "assay_type": "cell-based, human", "details": "10 μM 13C-2-acetyl MAGE, 1 h", "description": "Cells were cultured and maintained as described above. Cells used for 13C-2-acetyl MAGE experiments were incubated in BSA-RPMI containing inhibitor or vehicle for […]. BSA-RPMI medium was then removed, supplemented with 10 μM 13C-2-acetyl MAGE or DMSO, and re-applied to cells. After incubation for 1 h the cells were harvested and metabolomes were analyzed by LC-MS. 13C-MAGE experiments were conducted by addition of 13C-MAGE or DMSO containing BSA-RPMI directly after washing with PBS. Cells were then incubated for 4 h, harvested, and analyzed by LC-MS."}}, "note": "“Also recorded” adds a separate entry of the source."}
{"smiles": "CCCCOCC1CCCCC1COCCNC(=O)Oc1ccccc1F", "note": "(stereo not drawn) [AS115]", "values": [{"measurement": "Relative mass signal DMSO/AS115, PG C32", "setting": "SKOV-3 cells [1]", "value": 0.78}, {"measurement": "Relative mass signal DMSO/AS115, PG C34", "setting": "SKOV-3 cells [1]", "value": 0.95}, {"measurement": "Relative mass signal DMSO/AS115, PG C34:1", "setting": "SKOV-3 cells [1]", "value": 0.98}, {"measurement": "Relative mass signal DMSO/AS115, PG C36:1", "setting": "SKOV-3 cells [1]", "value": 0.89}, {"measurement": "Relative mass signal DMSO/AS115, PG C36:2", "setting": "SKOV-3 cells [1]", "value": 1.04}, {"measurement": "Relative mass signal DMSO/AS115, PS C32", "setting": "SKOV-3 cells [1]", "value": 1.06}, {"measurement": "Relative mass signal DMSO/AS115, PS C34", "setting": "SKOV-3 cells [1]", "value": 1.02}, {"measurement": "Relative mass signal DMSO/AS115, PS C34:1", "setting": "SKOV-3 cells [1]", "value": 0.96}, {"measurement": "Relative mass signal DMSO/AS115, PS C36:1", "setting": "SKOV-3 cells [1]", "value": 0.99}, {"measurement": "Relative mass signal DMSO/AS115, PS C36:2", "setting": "SKOV-3 cells [1]", "value": 1.13}, {"measurement": "Relative mass signal DMSO/AS115, MAGE C16", "setting": "SKOV-3 cells [1]; p<0.001", "value": 5.29}, {"measurement": "Relative mass signal DMSO/AS115, MAGE C18", "setting": "SKOV-3 cells [1]; p<0.001", "value": 5.86}, {"measurement": "Relative mass signal DMSO/AS115, MAGE C18:1", "setting": "SKOV-3 cells [1]; p<0.001", "value": 4.42}, {"measurement": "IC50", "setting": "[2]", "value": "> 10", "unit": "µM"}, {"measurement": "Background 2-thioacetyl MAGE hydrolyzing activity", "setting": "[3]", "value": "not inhibited"}, {"measurement": "Levels of MAGE lipids", "setting": "MUM-2B melanoma cells", "value": "significantly reduced"}, {"measurement": "Levels of MAGE lipids", "setting": "C8161 melanoma cells", "value": "significantly reduced"}, {"measurement": "Basal levels of 2-acetyl MAGE", "setting": "SKOV-3 cells [4]", "value": "not significantly altered"}, {"measurement": "Basal levels of PAF", "setting": "SKOV-3 cells [4]", "value": "not significantly altered"}, {"measurement": "Absolute level of MAGE lipid C18:1", "setting": "SKOV-3 cells [4]; 5 μM, 4 h, 13C-C16:0 MAGE internal standard, DMSO 12.1 ± 0.4", "value": "4.0 ± 0.7", "unit": "pmol/10^6 cells"}, {"measurement": "Absolute level of MAGE lipid C18:0", "setting": "SKOV-3 cells [4]; 5 μM, 4 h, 13C-C16:0 MAGE internal standard, DMSO 39.5 ± 3.7", "value": "7.6 ± 2.3", "unit": "pmol/10^6 cells"}, {"measurement": "Absolute level of MAGE lipid C16:0", "setting": "SKOV-3 cells [4]; 5 μM, 4 h, 13C-C16:0 MAGE internal standard, DMSO 94.7 ± 6.6", "value": "19.3 ± 2.2", "unit": "pmol/10^6 cells"}, {"measurement": "Levels of MAGE lipids", "setting": "SKOV-3 cells [4]; compared to DMSO controls", "value": "significantly lowered; also recorded: reduce"}, {"measurement": "Levels of alkyl-LPA", "setting": "SKOV-3 cells [4]; vs vehicle, FIG. 7B", "value": "reduce"}, {"measurement": "Levels of alkyl-LPC", "setting": "SKOV-3 cells [4]; vs vehicle, FIG. 7B", "value": "reduce"}, {"measurement": "Levels of 2-acetyl MAGE as judged by metabolic labeling", "setting": "SKOV-3 cells [5]", "value": "significantly stabilized"}, {"measurement": "PAF level in metabolic labeling experiments", "setting": "SKOV-3 cells [5]", "value": "accumulation"}]}
